According to paper PMC10907374, “G2019S selective LRRK2 kinase inhibitor abrogates mitochondrial DNA damage” (NPJ Parkinson's Disease, 2024):
“Also recorded” adds a separate entry of the source.

How the values were obtained:
[1] = test system: LRRK2^G2019S/G2019S KI HEK293 cells; assay: Mito DNADX mtDNA damage and mtDNA copy number in LRRK2 G2019S/G2019S KI HEK293 cells; format: cell-based, human; details: for mtDNA copy number / mtDNA damage: LRRK2 G2019S/G2019S KI cells, 2 h; for mtDNA copy number: 10 nM-1 μM
Procedure: Cells were plated at a density of 0.3 × 10^6 cells in a 6-well dish and treated at ~40–50% confluency. At the time of harvest, cells were collected and either protein collected or DNA extracted as described below.
Following this treatment, “Post-treatment recovery 0 h” samples were collected immediately, or vehicle or MLi-2-containing treatment medium was washed out and replaced with fresh medium and incubated for 2 additional hours and then collected as “Post-treatment recovery 2 h” samples. Isolation, quantitation, and mtDNA damage was performed as described below.
The tool compound EB-42168 was discovered as part of a small molecule discovery program aimed at identifying LRRK2 kinase inhibitors that are selective for the pathogenic G2019S LRRK2 variant. […] MLi‐2 inhibits WT LRRK2 ~1000‐fold more than EB‐42168[20].
Cells were collected and the nuclei and mitochondria were isolated as previously described. DNA was extracted from LRRK2-WT and G2019S-LRRK2 cells, and wild-type and LRRK2^G2019S/G2019S KI cells using QuickGene DNA Whole Blood Kit L (Autogen, fk-dbl). PD patient LRRK2 G2019S and healthy subject control-derived LCL DNA was extracted using the QuickGene DNA Tissue Kit L (Autogen, fk-dtl), utilizing a semi-automated system (Autogen, QuickGene-610L). For the Autogen system, the pellet was resuspended in 2 ml of 1X PBS, and the standard manufacturer’s protocol was conducted as if the cell suspension was whole blood. DNA was eluted with EDTA-free buffer, and quality was assessed using a Spectradrop microvolume microplate (Molecular Devices). Double-stranded DNA was quantified using Quant-iT Picogreen dsDNA assay (Thermo Fisher) as previously described.
DNA damage in the mitochondrial genome was measured utilizing Mito DNADX, an assay that we recently developed and described, currently the most robust way of measuring damage in mtDNA[39],[82]. The Mito DNADX assay combines optimized polymerase chain reaction (PCR) parameters using a high-fidelity DNA polymerase and a fluorescent dye that binds to double-stranded DNA that permits the real-time quantification of DNA damage in distinct loci in a 96-well platform. The premise of the Mito DNADX assay involves amplification of a specific mitochondrial PCR fragment in which less PCR product will be amplified when mtDNA damage or lesions block the ability of the DNA polymerase to replicate. As such, mtDNA damage or mtDNA repair intermediates that slow down or impair DNA polymerase progression will be detected. Therefore, equal amounts of sample DNA amplified under identical conditions can be directly compared across conditions to determine the mtDNA lesion frequency. Mitochondrial DNA lesion frequency was performed as previously described. Briefly, 15 ng of DNA was used to amplify long or short amplicons of the mitochondrial genome (as determined by primer sets). The amount of amplification is directly proportional to the number of undamaged DNA templates. Average lesion frequency is calculated as described. Results are presented with the values in experimental samples relative to control samples (normalized to 1 lesion per 10 kb). PCR reactions included KAPA Long Range HotStart DNA Polymerase (KAPA Biosystems)[49]. Each biological DNA sample was analyzed in technical triplicate. Limitations of the Mito DNADX assay have been recently discussed.

[2] = test system: LRRK2^G2019S/G2019S KI HEK293 cells; assay: Mitophagy (Mtphagy dye / Lyso dye live cell imaging) in LRRK2 G2019S/G2019S KI HEK293 cells; format: cell-based, human; details: 100 nM 2 h pre-treatment; for basal levels of mitophagy: Mitophagy dye intensity or co-localization; for FCCP-stimulated mitophagy defect: then 20 μM FCCP 3 h
Procedure: Thirty-five mm cell culture dishes (Cellvis, D35-20-1.5-N) were coated with poly-D-lysine (Sigma-Aldrich, P7280-5MG) for 5 min, washed with cell culture grade water (Sigma-Aldrich, W3500), and allowed to dry for at least 1 h before plating. LRRK2^G2019S/G2019S KI HEK293 and wild-type cells were passaged as described above and plated at 300,000 cells per well on poly-D-lysine-coated dishes. […] Following this, cells were washed three times with serum-free medium, and a working solution of Mtphagy dye (Dojindo, MD-01) was prepared in serum-free medium according to manufacturer protocols. Cultures were incubated with Mtphagy dye for 30 min, followed by three washes with serum-free medium. Complete medium was used to prepare a 20 µM FCCP (Abcam, ab120081) or DMSO control treatment solution, which was used to treat cells for 3 h. Following treatment, cells were then washed 3 times with serum-free medium, and a working solution of Lyso dye (Dojindo, MD-01) was prepared in serum-free medium and used to treat cells for 30 min. Complete medium lacking phenol red was prepared for use in confocal live cell imaging by combining phenol red-free DMEM/F-12 (Fisher Scientific, 21-041-025), FBS (VWR, 97068-085), and penicillin-streptomycin (VWR, 45000-652). Following Lyso dye treatment, cultures were washed three times with phenol red-free medium, followed by adding fresh phenol red-free medium to cell culture dishes. MitoBright LT Deep Red (Dojindo, MT12-12) was diluted in growth medium to prepare a 0.1 μmol/l solution and was used to treat cells for 15 min for total mitochondrial staining. Live cell imaging (5% CO2, 37 °C) was performed using a Zeiss LSM 880 Confocal Laser Scanning Microscope with Zen Black software. On average, ~70 cells were analyzed for each condition per each experimental replicate.
Following imaging, files were processed using Zen Blue software, and TIFF files of each channel were obtained for analysis. ImageJ was used to obtain readouts for image analysis. All images were converted to 8-bit format. For each respective image, the Lyso dye channel was used to create a mask delineating each lysosomal focus as a region of interest (ROI). Thresholding parameters were adjusted between biological replicates as required to ensure that the Lyso dye ROI encompassed all lysosome foci appropriately, and this was used to create a mask. This was then applied to the corresponding Mtphagy dye channel image, allowing collection of Mtphgy fluorescence intensity readouts for each lysosomal focus. Outliers were removed using Prism software (GraphPad) with the coefficient of removal set to 0.2%. Data was thresholded to exclude lysosomes not containing mitochondria by excluding fluorescence values with intensities equal to or below background levels. The number of ROIs remaining after thresholding was used to quantify lysosomes containing fluorescing mitochondria (mitolysosomes). Fluorescence intensity values for all mitolysosomes per condition per biological replicate were averaged to obtain a value of mitophagy fluorescence intensity per mitolysosome. For each replicate, all values of average mitolysosome fluorescence intensity were normalized to wild-type (vehicle treated) levels for the given replicate.

G2019S LRRK2 = details: cited from earlier work

CC1=C(C(=O)Nc2ccc3[nH]nc(-c4ccnc(N5CCOCC5)c4)c3c2)C(C)(C)n2nnnc2N1C [EB-42168]
mtDNA copy number [1]: reduced
mtDNA copy number ([1]; listed as EB-42618): modestly decreased
mtDNA damage ([1]; all concentrations tested (10 nM-1 μM)): reversed to wild-type levels
basal levels of mitophagy [2]: did not impact
FCCP-stimulated mitophagy defect [2]: failed to rescue
fold more potent inhibition of G2019S LRRK2 than wild-type LRRK2 (G2019S LRRK2): 100 fold

C[C@@H]1CN(c2cc(-c3n[nH]c4ccc(OC5(C)CC5)cc34)ncn2)C[C@H](C)O1 [MLi-2, reference compound]
mtDNA copy number after inhibitor washout ([1]; 100 nM for 2 h, washout, 2 h recovery): no changes
mtDNA damage phenotype after inhibitor washout ([1]; KI cells, 100 nM for 2 h, washout, 2 h recovery in media): fully re-established
time to re-establishment of mtDNA damage phenotype after washout ([1]; KI cells, 100 nM for 2 h then washout): ≤ 2 h
mtDNA copy number [1]: did not change; also recorded: No effect; also recorded: No changes
mtDNA damage ([1]; 100 nM): reversed mtDNA damage levels to wild-type levels
basal levels of mitophagy [2]: did not impact
FCCP-stimulated mitophagy defect [2]: failed to rescue
potency in recombinant cell lines expressing WT-LRRK2 or G2019S-LRRK2 (G2019S LRRK2): equipotent
